The supplement of paper PMC8617591

Legend:
[1] = test system: Mycobacterium tuberculosis Erdman (autoluminescent); test: total FIC50 (Loewe) at 50% inhibition, three-drug combination (log2); higher = more antagonistic
Method: (§1)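 DiaMOND equipotent three-drug combination dose responses (10 doses, 1.5- or 2-fold spacing, centred on IC90) against autoluminescent M. tuberculosis Erdman in 8 in vitro models. Read-out is OD600, or luminescence for the intracellular and dormancy models, normalised to untreated wells. Hill-fit Einf, AUC25 and GRinf are potency metrics; FIC50 and FIC90 are total Loewe fractional inhibitory concentrations as log2 (negative = synergy).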

[2] = test system: Mycobacterium tuberculosis Erdman (autoluminescent); test: total FIC90 (Loewe) at 90% inhibition, three-drug combination (log2); higher = more antagonistic
Method: as §1

[3] = test system: Mycobacterium tuberculosis Erdman (autoluminescent); test: Einf, fitted maximum growth inhibition of three-drug combination (fraction); higher = stronger maximal inhibition
Method: as §1

[4] = test system: Mycobacterium tuberculosis Erdman (autoluminescent); test: AUC25, normalised area under dose response up to IC25 (three-drug combination) (fraction (0-1)); higher = more potent at low dose
Method: as §1

[5] = test system: Mycobacterium tuberculosis Erdman (autoluminescent); test: GRinf, maximum normalised growth rate inhibition (three-drug combination) (unitless (-1 to 1)); higher = less effect (negative = killing)
Method: as §1

[6] = in vitro model: acidic pH 5.7, time point: constant (~7 days, model-specific)
[7] = in vitro model: acidic pH 5.7, time point: terminal (~4-5 doublings, model-specific)
[8] = in vitro model: butyrate, time point: constant (~7 days, model-specific)
[9] = in vitro model: butyrate, time point: terminal (~4-5 doublings, model-specific)
[10] = in vitro model: cholesterol 0.05 mM, time point: constant (~7 days, model-specific)
[11] = in vitro model: cholesterol 0.05 mM, time point: terminal (~4-5 doublings, model-specific)
[12] = in vitro model: cholesterol-high 0.2 mM, time point: constant (~7 days, model-specific)
[13] = in vitro model: cholesterol-high 0.2 mM, time point: terminal (~4-5 doublings, model-specific)
[14] = in vitro model: dormancy (butyrate + nitrate, low O2), time point: constant (~7 days, model-specific)
[15] = in vitro model: dormancy (butyrate + nitrate, low O2), time point: terminal (~4-5 doublings, model-specific)
[16] = in vitro model: standard 7H9 glycerol, time point: constant = terminal
[17] = in vitro model: valerate, time point: constant (~7 days, model-specific)
[18] = in vitro model: valerate, time point: terminal (~4-5 doublings, model-specific)
[19] = in vitro model: intracellular J774, time point: constant = terminal

COc1nc2ccc(Br)cc2cc1[C@@H](c1ccccc1)[C@@](O)(CCN(C)C)c1cccc2ccccc12 [bedaquiline] + CC(=O)NC[C@H]1CN(c2ccc(N3CCOCC3)c(F)c2)C(=O)O1 [linezolid] + CO[C@H]1/C=C/O[C@@]2(C)Oc3c(C)c(O)c4c(O)c(c(/C=N/N5CCN(C6CCCC6)CC5)c(O)c4c3C2=O)NC(=O)/C(C)=C\C=C\[C@H](C)[C@H](O)[C@@H](C)[C@@H](O)[C@@H](C)[C@H](OC(C)=O)[C@@H]1C [rifapentine]
total FIC50 [1, 6]: 0.654 | total FIC50 [1, 7]: 0.615 | total FIC50 [1, 8]: 0.437 | total FIC50 [1, 9]: 0.274 | total FIC50 [1, 10]: -0.0889 | total FIC50 [1, 11]: 0.0726 | total FIC50 [1, 12]: 0.58 | total FIC50 [1, 13]: 0.404 | total FIC50 [1, 14]: 0.915 | total FIC50 [1, 15]: 0.965 | total FIC50 [1, 16]: 0.253 | total FIC50 [1, 17]: 0.659 | total FIC50 [1, 18]: 0.581 | total FIC90 [2, 7]: 0.662 | total FIC90 [2, 8]: -0.119 | total FIC90 [2, 9]: -0.145 | total FIC90 [2, 11]: 0.0812 | total FIC90 [2, 12]: 1.04 | total FIC90 [2, 13]: 0.653 | total FIC90 [2, 14]: 1.57 | total FIC90 [2, 15]: 0.698 | total FIC90 [2, 19]: -0.0532 | total FIC90 [2, 16]: 0.00862 | total FIC90 [2, 18]: 0.338 | Einf [3, 6]: 0.926 | Einf [3, 7]: 0.986 | Einf [3, 8]: 0.921 | Einf [3, 9]: 0.948 | Einf [3, 10]: 0.761 | Einf [3, 11]: 0.93 | Einf [3, 12]: 0.998 | Einf [3, 13]: 1 | Einf [3, 14]: 0.933 | Einf [3, 15]: 0.985 | Einf [3, 19]: 0.933 | Einf [3, 16]: 0.939 | Einf [3, 17]: 0.899 | Einf [3, 18]: 0.945 | AUC25 [4, 6]: 0.108 | AUC25 [4, 7]: 0.0848 | AUC25 [4, 8]: 0.0812 | AUC25 [4, 9]: 0.0511 | AUC25 [4, 10]: 0.127 | AUC25 [4, 11]: 0.121 | AUC25 [4, 12]: 0.0873 | AUC25 [4, 13]: 0.1 | AUC25 [4, 14]: 0.0901 | AUC25 [4, 15]: 0.0384 | AUC25 [4, 16]: 0.0734 | AUC25 [4, 17]: 0.0755 | AUC25 [4, 18]: 0.0423 | GRinf [5, 6]: -0.244 | GRinf [5, 7]: -0.26 | GRinf [5, 8]: -0.0254 | GRinf [5, 9]: -0.00583 | GRinf [5, 10]: -0.281 | GRinf [5, 11]: -0.354 | GRinf [5, 12]: -0.89 | GRinf [5, 13]: -0.637 | GRinf [5, 14]: 0.0917 | GRinf [5, 15]: -0.095 | GRinf [5, 19]: -0.098 | GRinf [5, 16]: -0.014 | GRinf [5, 17]: -0.197 | GRinf [5, 18]: -0.0248

COc1nc2ccc(Br)cc2cc1[C@@H](c1ccccc1)[C@@](O)(CCN(C)C)c1cccc2ccccc12 [bedaquiline] + CC(=O)NC[C@H]1CN(c2ccc(N3CCOCC3)c(F)c2)C(=O)O1 [linezolid] + CO[C@H]1/C=C/O[C@@]2(C)Oc3c(C)c(O)c4c(O)c(c(/C=N/N5CCN(C)CC5)c(O)c4c3C2=O)NC(=O)/C(C)=C\C=C\[C@H](C)[C@H](O)[C@@H](C)[C@@H](O)[C@@H](C)[C@H](OC(C)=O)[C@@H]1C [rifampicin]
total FIC50 [1, 6]: 0.731 | total FIC50 [1, 7]: 0.737 | total FIC50 [1, 8]: 0.177 | total FIC50 [1, 9]: 0.082 | total FIC50 [1, 10]: -0.0465 | total FIC50 [1, 11]: 4.18 | total FIC50 [1, 12]: 0.47 | total FIC50 [1, 13]: 0.65 | total FIC50 [1, 14]: 0.618 | total FIC50 [1, 15]: 0.272 | total FIC50 [1, 16]: 0.312 | total FIC50 [1, 17]: 0.886 | total FIC50 [1, 18]: 0.712 | total FIC90 [2, 7]: 0.559 | total FIC90 [2, 8]: -0.362 | total FIC90 [2, 9]: -0.195 | total FIC90 [2, 11]: -0.205 | total FIC90 [2, 12]: 0.612 | total FIC90 [2, 13]: 0.504 | total FIC90 [2, 14]: 0.781 | total FIC90 [2, 15]: 0.748 | total FIC90 [2, 19]: -0.0392 | total FIC90 [2, 16]: -0.401 | total FIC90 [2, 18]: 0.323 | Einf [3, 6]: 0.934 | Einf [3, 7]: 0.99 | Einf [3, 8]: 0.914 | Einf [3, 9]: 0.955 | Einf [3, 10]: 0.744 | Einf [3, 11]: 0.937 | Einf [3, 12]: 0.988 | Einf [3, 13]: 1 | Einf [3, 14]: 0.941 | Einf [3, 15]: 0.982 | Einf [3, 19]: 0.93 | Einf [3, 16]: 0.938 | Einf [3, 17]: 0.895 | Einf [3, 18]: 0.953 | AUC25 [4, 6]: 0.0983 | AUC25 [4, 7]: 0.0798 | AUC25 [4, 8]: 0.0847 | AUC25 [4, 9]: 0.0706 | AUC25 [4, 10]: 0.149 | AUC25 [4, 11]: 0.135 | AUC25 [4, 12]: 0.095 | AUC25 [4, 13]: 0.0921 | AUC25 [4, 14]: 0.0823 | AUC25 [4, 15]: 0.0706 | AUC25 [4, 16]: 0.0714 | AUC25 [4, 17]: 0.0495 | AUC25 [4, 18]: 0.0389 | GRinf [5, 6]: -0.257 | GRinf [5, 7]: -0.249 | GRinf [5, 8]: -0.0141 | GRinf [5, 9]: -0.0153 | GRinf [5, 10]: -0.202 | GRinf [5, 11]: -0.321 | GRinf [5, 12]: -0.655 | GRinf [5, 13]: -0.646 | GRinf [5, 14]: 0.177 | GRinf [5, 15]: -0.387 | GRinf [5, 19]: -0.121 | GRinf [5, 16]: -0.0288 | GRinf [5, 17]: 0.063 | GRinf [5, 18]: -0.012

COc1nc2ccc(Br)cc2cc1[C@@H](c1ccccc1)[C@@](O)(CCN(C)C)c1cccc2ccccc12 [bedaquiline] + CC(=O)NC[C@H]1CN(c2ccc(N3CCOCC3)c(F)c2)C(=O)O1 [linezolid] + COc1c(N2C[C@@H]3CCCN[C@@H]3C2)c(F)cc2c(=O)c(C(=O)O)cn(C3CC3)c12 [moxifloxacin]
total FIC50 [1, 6]: 0.265 | total FIC50 [1, 7]: 0.43 | total FIC50 [1, 8]: 0.691 | total FIC50 [1, 9]: 0.693 | total FIC50 [1, 10]: 0.224 | total FIC50 [1, 11]: -0.0261 | total FIC50 [1, 12]: 0.524 | total FIC50 [1, 13]: 0.657 | total FIC50 [1, 14]: 0.916 | total FIC50 [1, 15]: 1.62 | total FIC50 [1, 16]: 0.152 | total FIC50 [1, 17]: 0.407 | total FIC50 [1, 18]: 0.697 | total FIC90 [2, 7]: -0.0182 | total FIC90 [2, 8]: 0.695 | total FIC90 [2, 9]: 0.691 | total FIC90 [2, 11]: -0.532 | total FIC90 [2, 12]: 0.835 | total FIC90 [2, 13]: 1.04 | total FIC90 [2, 14]: 0.891 | total FIC90 [2, 15]: 1.09 | total FIC90 [2, 19]: 1.32 | total FIC90 [2, 16]: 0.63 | total FIC90 [2, 18]: 0.911 | Einf [3, 6]: 0.833 | Einf [3, 7]: 0.934 | Einf [3, 8]: 0.936 | Einf [3, 9]: 0.968 | Einf [3, 10]: 0.758 | Einf [3, 11]: 0.966 | Einf [3, 12]: 0.992 | Einf [3, 13]: 1 | Einf [3, 14]: 0.921 | Einf [3, 15]: 0.989 | Einf [3, 19]: 0.862 | Einf [3, 16]: 0.971 | Einf [3, 17]: 0.902 | Einf [3, 18]: 0.947 | AUC25 [4, 6]: 0.108 | AUC25 [4, 7]: 0.0466 | AUC25 [4, 8]: 0.0949 | AUC25 [4, 9]: 0.0643 | AUC25 [4, 10]: 0.131 | AUC25 [4, 11]: 0.144 | AUC25 [4, 12]: 0.11 | AUC25 [4, 13]: 0.108 | AUC25 [4, 14]: 0.0831 | AUC25 [4, 15]: 0.0363 | AUC25 [4, 16]: 0.0873 | AUC25 [4, 17]: 0.118 | AUC25 [4, 18]: 0.0703 | GRinf [5, 6]: -0.483 | GRinf [5, 7]: -0.2 | GRinf [5, 8]: -0.0894 | GRinf [5, 9]: -0.0714 | GRinf [5, 10]: -0.288 | GRinf [5, 11]: -0.449 | GRinf [5, 12]: -0.761 | GRinf [5, 13]: -0.836 | GRinf [5, 14]: 0.149 | GRinf [5, 15]: -0.0826 | GRinf [5, 19]: -0.242 | GRinf [5, 16]: -0.102 | GRinf [5, 17]: -0.144 | GRinf [5, 18]: -0.0335
